Measurements from patent publication US10214508B2, “Nitrogen-containing heterocyclic compound” (Takeda Pharmaceutical Company Limited, priority 2014, dated 2019).

These compounds were tested against T1, human M1 receptor (hCHRM1) (Homo sapiens, UniProt P11229) (assay: Measurement of M1 receptor positive allosteric modulator (M1PAM) activity, calcium fluorescence (FLIPRtetra)). Settings: 10 μM test compound with acetylcholine at EC20 (final 0.6-0.8 nM); 100% = acetylcholine 1 μM, 0% = DMSO; CHO-K1 cells expressing hCHRM1.
T1 construct: expressed in transfected cells
T1 sequence (P11229 1-460): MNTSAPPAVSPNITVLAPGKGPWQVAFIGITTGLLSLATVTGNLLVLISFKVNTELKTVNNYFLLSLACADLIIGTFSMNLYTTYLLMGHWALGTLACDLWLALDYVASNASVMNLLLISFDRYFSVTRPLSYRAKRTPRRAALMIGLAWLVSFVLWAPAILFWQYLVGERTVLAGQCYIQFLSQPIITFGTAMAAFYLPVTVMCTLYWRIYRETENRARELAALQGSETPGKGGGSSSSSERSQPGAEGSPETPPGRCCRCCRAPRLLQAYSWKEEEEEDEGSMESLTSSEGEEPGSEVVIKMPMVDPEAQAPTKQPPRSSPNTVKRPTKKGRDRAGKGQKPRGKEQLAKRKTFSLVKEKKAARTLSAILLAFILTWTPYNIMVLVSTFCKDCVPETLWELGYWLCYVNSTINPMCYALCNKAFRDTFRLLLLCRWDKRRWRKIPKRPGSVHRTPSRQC
Type: cell-based
How it was run: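 CHO-K1 cells stably expressing hM1 were Fluo-4-loaded; compound added with acetylcholine at EC20 (0.6-0.8 nM final), calcium fluorescence read 1 min on FLIPRtetra. Activity scaled between DMSO (0%) and 1 μM acetylcholine (100%); inflection point of concentration–response reported as IP.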
With COc1cnc(C(=O)N[C@H]2CCCC[C@@H]2O)cc1Cc1ccc(-c2cnn(C)c2)nc1 [Example 59, N-((1S,2S)-2-hydroxycyclohexyl)-5-methoxy-4-((6-(1-methyl-1H-pyrazol-4-yl)pyridin-3-yl)methyl)pyridine-2-carboxamide] the “activity (%) at 10 μM” value was 90%. With Cc1cnc(C(=O)N[C@H]2CCC[C@@H]2O)cc1Cc1ccc(-n2cccn2)cc1 [Example 50, N-((1S,2S)-2-hydroxycyclopentyl)-5-methyl-4-(4-(1H-pyrazol-1-yl)benzyl)pyridine-2-carboxamide] the “activity (%) at 10 μM” value was 105%. With COc1cnc(C(=O)N[C@H]2CCCC[C@@H]2O)cc1Cc1ccc(-c2cnn(C)c2)nc1 (relative stereo) [Example 58, N-(trans-2-hydroxycyclohexyl)-5-methoxy-4-((6-(1-methyl-1H-pyrazol-4-yl)pyridin-3-yl)methyl)pyridine-2-carboxamide] the “activity (%) at 10 μM” value was 89%. With COc1cc(Cc2ccc(-n3cccn3)cc2)cc(C(=O)N[C@H]2CCCC[C@@H]2O)n1 [Example 69, N-((1S,2S)-2-hydroxycyclohexyl)-6-methoxy-4-(4-(1H-pyrazol-1-yl)benzyl)pyridine-2-carboxamide] the “activity (%) at 10 μM” value was 100%. For COc1cnc(C(=O)N[C@H]2CCCC[C@@H]2O)cc1Cc1ccc(Cl)nc1 [Example 61, 4-((6-chloropyridin-3-yl)methyl)-N-((1S,2S)-2-hydroxycyclohexyl)-5-methoxypyridine-2-carboxamide], the “activity (%) at 10 μM” value was 108%. With Cc1cnc(C(=O)N[C@H]2CCCC[C@@H]2O)cc1Cc1ccc(-c2ccn(C)n2)cc1 [Example 9, N-((1S,2S)-2-hydroxycyclohexyl)-5-methyl-4-(4-(1-methyl-1H-pyrazol-3-yl)benzyl)pyridine-2-carboxamide] the “activity (%) at 10 μM” value was 91%. Cc1cnc(C(=O)N[C@H]2COCC[C@@H]2O)cc1Cc1ccc(-n2cccn2)cc1F [Example 17, 1,5-anhydro-2,4-dideoxy-2-(((4-(2-fluoro-4-(1H-pyrazol-1-yl)benzyl)-5-methylpyridin-2-yl)carbonyl)amino)-L-threo-pentitol] was tested, and the “activity (%) at 10 μM” value was 98%. With Cc1nc(C(=O)N[C@H]2CCCC[C@@H]2O)cc(Cc2ccc(-c3ccn(C)n3)nc2)c1Cl [Example 107, 5-chloro-N-((1S,2S)-2-hydroxycyclohexyl)-6-methyl-4-((6-(1-methyl-1H-pyrazol-3-yl)pyridin-3-yl)methyl)pyridine-2-carboxamide] the “activity (%) at 10 μM” value was 101%. Cc1cnc(C(=O)N[C@H]2CCC[C@@H]2O)cc1Cc1ccc(-n2cccn2)cc1F [Example 13, 4-(2-fluoro-4-(1H-pyrazol-1-yl)benzyl)-N-((1S,2S)-2-hydroxycyclopentyl)-5-methylpyridine-2-carboxamide] was tested, and the “activity (%) at 10 μM” value was 92%. With O=C(N[C@H]1CCCC[C@@H]1O)c1cc(Cc2ccc(-n3cccn3)cc2)c(C2CC2)cn1 [Example 46, 5-cyclopropyl-N-((1S,2S)-2-hydroxycyclohexyl)-4-(4-(1H-pyrazol-1-yl)benzyl)pyridine-2-carboxamide] the “activity (%) at 10 μM” value was 101%. CCc1cnc(C(=O)N[C@H]2CCCC[C@@H]2O)cc1Cc1ccc(-n2cccn2)cc1 [Example 43, 5-ethyl-N-((1S,2S)-2-hydroxycyclohexyl)-4-(4-(1H-pyrazol-1-yl)benzyl)pyridine-2-carboxamide] was tested, and the “activity (%) at 10 μM” value was 92%. In the case of Cc1ccc(Cc2cc(C(=O)N[C@H]3COCC[C@@H]3O)nc(C)c2Cl)cn1 [Example 111, 1,5-anhydro-2-(((5-chloro-6-methyl-4-((6-methylpyridin-3-yl)methyl)pyridin-2-yl)carbonyl)amino)-2,4-dideoxy-L-threo-pentitol], the “activity (%) at 10 μM” value is reported as 90%. For Cc1nc(C(=O)N[C@H]2CCCC[C@@H]2O)cc(Cc2ccc(-c3cnn(C)c3)nc2)c1C [Example 80, N-((1S,2S)-2-hydroxycyclohexyl)-5,6-dimethyl-4-((6-(1-methyl-1H-pyrazol-4-yl)pyridin-3-yl)methyl)pyridine-2-carboxamide], the “activity (%) at 10 μM” value was 84%. Cn1ccc(-c2ccc(Cc3cc(C(=O)N[C@H]4CCCC[C@@H]4O)ncc3Cl)cc2)n1 [Example 51, 5-chloro-N-((1S,2S)-2-hydroxycyclohexyl)-4-(4-(1-methyl-1H-pyrazol-3-yl)benzyl)pyridine-2-carboxamide] was tested, and the “activity (%) at 10 μM” value was 95%. For CCc1cnc(C(=O)N[C@H]2COCC[C@@H]2O)cc1Cc1ccc(-n2cccn2)cc1 [Example 44, 1,5-anhydro-2,4-dideoxy-2-(((5-ethyl-4-(4-(1H-pyrazol-1-yl)benzyl)pyridin-2-yl)carbonyl)amino)-L-threo-pentitol], the “activity (%) at 10 μM” value was 92%. In the case of Cc1cnc(C(=O)N[C@H]2CCCC[C@@H]2O)cc1Cc1ccc(-c2ccn(C)n2)cc1F [Example 10, 4-(2-fluoro-4-(1-methyl-1H-pyrazol-3-yl)benzyl)-N-((1S,2S)-2-hydroxycyclohexyl)-5-methylpyridine-2-carboxamide], the “activity (%) at 10 μM” value is reported as 89%. With Cc1cnc(C(=O)N[C@H]2c3ccccc3C[C@H]2O)cc1Cc1ccc(-c2ccn(C)n2)cc1 [Example 24, N-((1S,2R)-2-hydroxy-2,3-dihydro-1H-inden-1-yl)-5-methyl-4-(4-(1-methyl-1H-pyrazol-3-yl)benzyl)pyridine-2-carboxamide] the “activity (%) at 10 μM” value was 87%. In the case of COc1ccc(Cc2cc(C)nc(C(=O)N[C@H]3CCCC[C@@H]3O)c2)cc1 [Example 71, N-((1S,2S)-2-hydroxycyclohexyl)-4-(4-methoxybenzyl)-6-methylpyridine-2-carboxamide], the “activity (%) at 10 μM” value is reported as 69%. In the case of Cc1nc(C(=O)N[C@H]2CCCC[C@@H]2O)cc(Cc2ccc(-n3cccn3)cc2)c1Cl [Example 98, 5-chloro-N-((1S,2S)-2-hydroxycyclohexyl)-6-methyl-4-(4-(1H-pyrazol-1-yl)benzyl)pyridine-2-carboxamide], the “activity (%) at 10 μM” value is reported as 94%. For COc1ccc(Cc2cc(C(=O)N[C@H]3COCC[C@@H]3O)nc(C)c2C)cc1 [Example 83, 1,5-anhydro-2,4-dideoxy-2-(((4-(4-methoxybenzyl)-5,6-dimethylpyridin-2-yl)carbonyl)amino)-L-threo-pentitol], the “activity (%) at 10 μM” value was 103%. In the case of Cc1cnc(C(=O)NC2(CO)CC2)cc1Cc1ccc(-c2ccn(C)n2)cc1 [Example 23, N-(1-(hydroxymethyl)cyclopropyl)-5-methyl-4-(4-(1-methyl-1H-pyrazol-3-yl)benzyl)pyridine-2-carboxamide], the “activity (%) at 10 μM” value is reported as 84%. In the case of COc1cnc(C(=O)N[C@H]2CCCC[C@@H]2O)cc1Cc1ccc(Cl)nc1 [Example 57, 4-((6-chloropyridin-3-yl)methyl)-N-(2-trans-hydroxycyclohexyl)-5-methoxypyridine-2-carboxamide], the “activity (%) at 10 μM” value is reported as 95%. With Cc1nc(C(=O)N[C@H]2CCC[C@@H]2O)cc(Cc2ccc(-n3cccn3)cc2)c1C [Example 75, N-((1S,2S)-2-hydroxycyclopentyl)-5,6-dimethyl-4-(4-(1H-pyrazol-1-yl)benzyl)pyridine-2-carboxamide] the “activity (%) at 10 μM” value was 102%. Cc1nc(C(=O)N[C@H]2COCC[C@@H]2O)cc(Cc2ccc(C#N)cc2)c1Cl [Example 101, 1,5-anhydro-2-(((5-chloro-4-(4-cyanobenzyl)-6-methylpyridin-2-yl)carbonyl)amino)-2,4-dideoxy-L-threo-pentitol] was tested, and the “activity (%) at 10 μM” value was 105%. For Cc1nc(C(=O)N[C@H]2COCC[C@@H]2O)cc(Cc2ccc(-c3ccn(C)n3)cc2)c1C#N [Example 115, 1,5-anhydro-2-(((5-cyano-6-methyl-4-(4-(1-methyl-1H-pyrazol-3-yl)benzyl)pyridin-2-yl)carbonyl)amino)-2,4-dideoxy-L-threo-pentitol], the “activity (%) at 10 μM” value was 111%. In the case of COc1ccc(Cc2cc(C(=O)N[C@H]3CCCC[C@@H]3O)ncc2C)cc1 [Example 19, N-((1S,2S)-2-hydroxycyclohexyl)-4-(4-methoxybenzyl)-5-methylpyridine-2-carboxamide], the “activity (%) at 10 μM” value is reported as 104%. COc1cnc(C(=O)N[C@H]2CCCC[C@@H]2O)cc1Cc1ccc(-n2cccn2)cc1 [Example 63, N-((1S,2S)-2-Hydroxycyclohexyl)-5-methoxy-4-(4-(1H-pyrazol-1-yl)benzyl)pyridine-2-carboxamide] was tested, and the “activity (%) at 10 μM” value was 94%. Cc1cnc(C(=O)NC2CC2)cc1Cc1ccc(-c2ccn(C)n2)cc1 [Example 28, N-cyclopropyl-5-methyl-4-(4-(1-methyl-1H-pyrazol-3-yl)benzyl)pyridine-2-carboxamide] was tested, and the “activity (%) at 10 μM” value was 73%. Cc1nc(C(=O)N[C@H]2CCCC[C@@H]2O)cc(Cc2ccc(Br)cc2)c1C [Example 77, 4-(4-bromobenzyl)-N-((1S,2S)-2-hydroxycyclohexyl)-5,6-dimethylpyridine-2-carboxamide] was tested, and the “activity (%) at 10 μM” value was 100%. Cc1nc(C(=O)N[C@H]2COCC[C@@H]2O)cc(Cc2ccc(-c3ccn(C)n3)cc2)c1Cl [Example 96, 1,5-anhydro-2-(((5-chloro-6-methyl-4-(4-(1-methyl-1H-pyrazol-3-yl)benzyl)pyridin-2-yl)carbonyl)amino)-2,4-dideoxy-L-threo-pentitol] was tested, and the “activity (%) at 10 μM” value was 112%. In the case of O=C(N[C@H]1CCC[C@@H]1O)c1cc(Cc2ccc(-n3cccn3)cc2)c(Cl)cn1 [Example 7, 5-chloro-N-((1S,2S)-2-hydroxycyclopentyl)-4-(4-(1H-pyrazol-1-yl)benzyl)pyridine-2-carboxamide], the “activity (%) at 10 μM” value is reported as 104%.
